# Test results: patent US4353907A, “Amidino hydrazone . C17 H29-35 COOH insect and fire ant bait formulations” (American Cyanamid Co., priority 1981, dated 1982)
# “And” between values parts separate entries of the source, which are not always exact repeats. Equal values may be shown once.
# Legend:
# [1] = Solubility of the toxicant in fatty acids and edible fats and oils; assay type: physicochemical
# [2] = system: Tobacco budworm (Heliothis vireacens), 1st instar; test: Screening, TBW 1st instar test; assay type: in vivo
# Description: Insect: Tobacco budworm (Heliothis vireacens), 1st instar.
# Test: Screening, TBW 1st instar test.
# (§1) Formulation: 50:50 acetone:water
# Concentrations: Screening: 300, 100, 10, 1 ppm
# (§2) Plant Preparation: Cotton plants are selected to give plants with the first true leaf expanded to about 6-7 cm in length.
# Insect Preparation: Cheesecloth on which moths have oviposited is daily cut into 10-20 mm squares containing 50-100 eggs each. These squares are held at 21° C. for 2 days and 24° C. for another day in order to coordinate hatch with testing times. Thus, the larvae are 0-2 hours old at time of use.
# Test Procedure: The cotton plant is dipped in the test formulation, agitated for 3 seconds, and placed in the hood to air dry. When dry, the leaf is removed from the plant and placed in an "8-ounce Dixie cup (240 ml, 6 cm high, top diameter 9.5 cm, bottom diameter (8 cm)" to which a 5 cm length of damp cotton dental wick had been previously added. A square of cheesecloth with newly hatched budworm larvae on it is placed on the treated leaf and a clear plastic lid is put on the cup.
# Holding Conditions: The cups are held at 27° C. for 2 days.
# Observations: Kill of larvae. This may require the use of a low-power microscope to determine if the worms are dead or just not feeding. Observation of amount of feeding is also recorded. Where there is only trace to light feeding, the cup is held an extra day and results recorded at that time. The standard rating system of 0-9 is used.
# [3] = system: Southern armyworm (Spodoptera eridania), 3rd instar; test: Screening: Southern armyworm larva; assay type: in vivo
# Description: Insect: Southern armyworm (Spodoptera eridania). 3rd instar.
# Test: Screening: Southern armyworm larva.
# Formulation: 2:1 acetone:water.
# Plant Preparation: Sieva lima bean plants are selected with primary leaves 7-8 cm long and cut back to one plant per pot.
# Insect Preparation: A 100×10 mm petri dish is prepared by putting a damp filter paper in the bottom and ten 3rd instar larvae are added. These are about 10 mm long.
# Test Procedure: The bean plant is dipped for 3 seconds with agitation in the test formulation and placed in the hood to dry. One leaf is removed from the plant and placed in the petri dish with the caterpillars.
# Holding Conditions: The dish is held at 27° C. The plant with the remaining leaf is held in the greenhouse under high intensity lights.
# Observations: Mortality counts are made after 2 days and recorded using the standard 0-9 rating system.
# [4] = system: Phosphate resistant 2-spotted spider mite (Tetranychus urticae); test: Screening: Mite test; assay type: in vivo; details: 300 ppm
# Description: Mite: Phosphate resistant 2-spotted spider mite
# (Tetranychus urticae), adults, eggs, nymphs.
# Test: Screening: Mite test.
# as §1
# Plant Preparation: Sieva lima bean plants with primary leaves 7-8 cm long are selected and cut back to one plant per pot. A small piece is cut off of a leaf taken from the main mite colony and placed on each leaf of the test plants. This is done about 1-3 hours before use to allow the mites to move over to the test plant and lay eggs before treatment. The size of the piece cut is varied to try to obtain about 100 mites per leaf.
# Mite Preparation: See above.
# Test Procedure: The piece of leaf used to transfer mites is removed and discarded. The mite-infested plant is dipped in the test formulation for 3 seconds with agitation, and the plant set in the hood to dry.
# Holding Conditions: The plants are held for 2 days at 27° C. for the first observation, and the second leaf is kept on the plant for another 5 days for the final observation.
# Observations: After 2 days one leaf is removed and examined under a 10×microscope to determine the mortality of the adult mites. The second leaf is examined similarly 7 days after treatment to observe the kill of eggs and of newly hatched nymphs giving a measure of ovicidal and residual action, respectively. Any evidence of phytotoxicity from the test treatment is noted. The standard rating system of 0-9 is used to record the mite data.
# [5] = system: Bean aphid (Aphis fabae), mixed stages; test: Screening: bean aphid test; assay type: in vivo; details: 100 ppm
# Description: Insect: Bean aphid (Aphis fabae), mixed stages.
# Test: Screening: bean aphid test
# (§3) Formulation: 50:50 acetone:water.
# Plant Preparation: 5 cm pots each containing a nasturtium plant about 5 cm tall are infested with 100 to 400 aphids 2-4 days before the test.
# Insect Preparation: See above.
# Test Procedure: The pot of aphids is sprayed for 2 revolutions of a 4 rpm turntable in the hood, using a #154 DeVilbiss atomizer at 1500 kg/m^2 pressure. The spray tip is held about 15 cm from the plant and the spray directed so as to give complete coverage of the aphid and the plants. The sprayed plants are laid on their sides on white enamel trays measuring 24×34 cm.
# Holding Conditions: Trays of sprayed pots are held at 27° C. for 1 day.
# Observations: Mortality estimates are made and data recorded with the standard […] rating system.
# NOTE: For LD50 determinations, a clean tray 24×34 cm is ruled off into a grid with 3 cm spacing and the live aphids gently brushed off the plant onto the gridded tray. This makes it easier to make an exact count of the number of aphids on the plant. Dead aphids, which fall off the plant onto the tray, are counted where they fall, since they stick to the tray and cannot be brushed onto a gridded tray for counting.
# [6] = Determination of Solubility in Soybean Oil (HPLC of oil phase after equilibration); assay type: physicochemical; details: for % Salt in Oil Layer / % Amidino Hydrazone in Oil Layer (w/w), Average: 25° C.; for % Salt in Oil Layer: footnote * formula (drawing 4); for % Amidino Hydrazone in Oil Layer (w/w), Average: average of duplicates; for % Amidino Hydrazone in Oil Layer (w/w): individual duplicate, equilibrated at 100° C. 4 hours, cooled to 25° C.
# Description: Each salt of example 1 was equilibrated with approximately 3/8 its weight of soybean oil at 100° C. for 4 hours with ultrasonic agitation. The resulting mixtures were centrifuged while hot and allowed to cool to room temperature (25° C.). […] Duplicate samples of the oil phases were analyzed by solution in methylene chloride and quantitation by HPLC.
# [7] = system: Tobacco budworm (Heliothis virescens), egg; test: Screening, TBW egg test (tobacco budworm eggs); assay type: in vivo; details: 300 ppm
# Text: Insect: Tobacco budworm (Heliothis virescens), egg
# Test: Screening, TBW egg test.
# as §3
# Concentrations: Screening: 300, 100, 10, 1 ppm.
# as §2
# Insect Preparation: Eggs are collected on cheesecloth used as the lid for the moth oviposition chamber in the rearing colony. This cloth is cut into 10-20 mm squares containing about 50-100 budworm eggs laid within the past day. Thus, eggs are 6-30 hours old when used in the test.
# Test Procedures: The cotton plant is dipped in the test formulation and agitated for 3 seconds. A square of cheesecloth with eggs is also dipped in the test formulation, placed on the treated leaf and the combination placed in the hood to air dry. When dry, the leaf and egg cloth are removed from the plant, and placed in an "8-ounce Dixie cup (240 ml. 6 cm high, top diameter 9.5 cm. bottom diameter 8 cm)," to which a 5 cm length of damp cotton dental wick had been previously added. A clear plastic lid is placed on the cup.
# Holding Conditions: The cups are held at 27° C. until the eggs hatch, which occurs in about 2 days.
# Observations: Kill of eggs. This may require the use of a low-power microscope to determine if the lack of visible mobile caterpillars is due to lack of egg hatch or due to the newly hatched caterpillars dying on the leaf under and near the cheesecloth. The standard rating system of 0-9 is used to record the results.
# [8] = listed as Amidino Hydrazone Salt Of Stearic Acid
# [9] = listed as Amidino Hydrazone Salt Of Linolenic Acid
# [10] = listed as Amidino Hydrazone Salt Of Linoleic Acid
# [11] = listed as Amidino Hydrazone Salt Of Oleic Acid
smiles,measurement,setting,value
"CC1(C)CN=C(NN=C(C=Cc2ccc(C(F)(F)F)cc2)C=Cc2ccc(C(F)(F)F)cc2)NC1 [Amidino Hydrazone, 1,5-bis(alpha,alpha,alpha-trifluoro-p-tolyl)-1,4-pentadien-3-one (1,4,5,6-tetrahydro-5,5-dimethyl-2-pyrimidinyl)hydrazone]",solubility in edible fats and oils attractive to fire ants,[1]; edible fats and oils as solvents for the toxicant,not very good solvents
same,solubility in fatty acids,"[1]; oleic, linoleic, linolenic, stearic acid and mixtures",readily soluble
"CC1(C)CN=C(NN=C(C=Cc2ccc(C(F)(F)F)cc2)C=Cc2ccc(C(F)(F)F)cc2)NC1 [Amidino Hydrazone Stearate, 1,4-pentadien-3-one, 1,5-bis(alpha,alpha,alpha-trifluoro-p-tolyl)-(1,4,5,6-tetrahydro-5,5-dimethyl-2-pyrimidinyl)hydrazone stearate]",1st Instar Tobacco Budworms control rating,[2]; 10 ppm,0 (0 control)
same,1st Instar Tobacco Budworms control rating,[2]; 100 ppm,9 (100% control)
same,1st Instar Tobacco Budworms control rating,[2]; 300 ppm,9 (100% control)
same,3rd Instar Armyworms control rating,[3]; 10 ppm,9 (100% control)
same,3rd Instar Armyworms control rating,[3]; 100 ppm,9 (100% control)
same,3rd Instar Armyworms control rating,[3]; 1000 ppm,9 (100% control)
same,P-res. Mites control rating,[4],0 (0 control)
same,Aphids control rating,[5],8 (90% control)
same,% Salt in Oil Layer,[6]; [8],47%
same,"% Amidino Hydrazone in Oil Layer (w/w), Average",[6]; [8],30.1 % (w/w)
same,% Amidino Hydrazone in Oil Layer (w/w),[6]; [8],29.8 % (w/w) and 30.4 % (w/w)
same,Budworm Eggs control rating,[7],0 (0 control)
CC1(C)CN=C(NN=C(C=Cc2ccc(C(F)(F)F)cc2)C=Cc2ccc(C(F)(F)F)cc2)NC1 [Amidino Hydrazone Linolenate],1st Instar Tobacco Budworms control rating,[2]; 10 ppm,0 (0 control)
same,1st Instar Tobacco Budworms control rating,"[2]; 100 ppm, listed as Amidino Hydrazine Linolenate",9 (100% control)
same,1st Instar Tobacco Budworms control rating,"[2]; 300 ppm, listed as Amidino Hydrazine Linolenate",9 (100% control)
same,3rd Instar Armyworms control rating,"[3]; 10 ppm, listed as Amidino Hydrazine Linolenate",9 (100% control)
same,3rd Instar Armyworms control rating,[3]; 100 ppm,9 (100% control)
same,3rd Instar Armyworms control rating,[3]; 1000 ppm,9 (100% control)
same,P-res. Mites control rating,[4],0 (0 control)
same,Aphids control rating,[5]; listed as Amidino Hydrazine Linolenate,5 (60% control)
same,% Salt in Oil Layer,[6]; [9],55%
same,"% Amidino Hydrazone in Oil Layer (w/w), Average",[6]; [9],35.4 % (w/w)
same,% Amidino Hydrazone in Oil Layer (w/w),[6]; [9],35.9 % (w/w) and 34.8 % (w/w)
same,Budworm Eggs control rating,[7],0 (0 control)
CC1(C)CN=C(NN=C(C=Cc2ccc(C(F)(F)F)cc2)C=Cc2ccc(C(F)(F)F)cc2)NC1 [Amidino Hydrazone Linoleate],1st Instar Tobacco Budworms control rating,[2]; 10 ppm,0 (0 control)
same,1st Instar Tobacco Budworms control rating,[2]; 100 ppm,7 (80% control)
same,1st Instar Tobacco Budworms control rating,[2]; 300 ppm,9 (100% control)
same,3rd Instar Armyworms control rating,[3]; 10 ppm,9 (100% control)
same,3rd Instar Armyworms control rating,[3]; 100 ppm,9 (100% control)
same,3rd Instar Armyworms control rating,[3]; 1000 ppm,9 (100% control)
same,P-res. Mites control rating,[4],0 (0 control)
same,Aphids control rating,[5],0 (0 control)
same,% Salt in Oil Layer,[6]; [10],47%
same,"% Amidino Hydrazone in Oil Layer (w/w), Average",[6]; [10],30.3 % (w/w)
same,% Amidino Hydrazone in Oil Layer (w/w),[6]; [10],30.3 % (w/w) and 30.4 % (w/w)
same,Budworm Eggs control rating,[7],0 (0 control)
CC1(C)CN=C(NN=C(C=Cc2ccc(C(F)(F)F)cc2)C=Cc2ccc(C(F)(F)F)cc2)NC1 [Amidino Hydrazone Oleate],1st Instar Tobacco Budworms control rating,[2]; 10 ppm,0 (0 control)
same,1st Instar Tobacco Budworms control rating,[2]; 100 ppm,0 (0 control)
same,1st Instar Tobacco Budworms control rating,[2]; 300 ppm,7 (80% control)
same,3rd Instar Armyworms control rating,[3]; 10 ppm,6 (70% control)
same,3rd Instar Armyworms control rating,[3]; 100 ppm,9 (100% control)
same,3rd Instar Armyworms control rating,[3]; 1000 ppm,9 (100% control)
same,P-res. Mites control rating,[4],0 (0 control)
same,Aphids control rating,[5],0 (0 control)
same,% Salt in Oil Layer,[6]; [11],44%
same,"% Amidino Hydrazone in Oil Layer (w/w), Average",[6]; [11],28.0 % (w/w)
same,% Amidino Hydrazone in Oil Layer (w/w),[6]; [11],27.8 % (w/w) and 28.1 % (w/w)
same,Budworm Eggs control rating,[7],0 (0 control)
